According to US5011846A, “Medicament compositions derived from quinolizine and quinolizinone and methods of use thereof” (Merrell Dow Pharmaceuticals Inc., priority 1988, dated 1991):
Where a name gives a salt, the structure may show the parent alone.

Key:
[1] = target: 5-HT M-receptor; conditions: literature values (Fozard et al.), 5-HT receptor antagonism; cited from earlier work
[2] = test system: Von Bezold-Jarisch Reflex induced by 5-HT; assay: Von Bezold-Jarisch Reflex induced by 5-HT injected intravenously into the rat; assay type: in vivo
Description: The activity of these compounds against 5-HT can be assessed in vivo by measurement of the effect of the compound on the Von Bezold-Jarisch Reflex induced by 5-HT injected intravenously into the rat (see Paintal A.S., Physiol. Rev. 53, 159-227, 1973; J. R. Fozard, Naunyn-Schmiedeberg's Arch. Pharmacol., 326, 1984, 36-44). The transient cardiac slowing arises from an increased afferent vagus activity arising from stimulation by 5-HT of sensory afferent fibers in and around the heart.

[3] = test system: nausea and vomiting induced by cancer chemotherapeutic agents; conditions: animal experimental model (Miner et al.; Costall et al.); cited from earlier work
[4] = test system: acute migraine attack; conditions: cited from earlier work
[5] = 0.01-0.1 mg/kg given intravenously

Row | SMILES | pA2 [1] | prevention of nausea and vomiting induced by cancer chemotherapeutic agents [3] | also measured
1 | COC(=O)[C@H]1[C@@H](OC(=O)c2ccccc2)C[C@@H]2CC[C@H]1N2 [nor (-) cocaine] | 7.7 | – | –
2 | Cc1cc(C)cc(C(=O)OC2CC3CC4CC(C2)N3CC4=O)c1 (stereo not drawn) [endo-8-(3,5-dimethylbenzoyl-oxy)hexahydro-2,6-methano-2H-quinolizin-3(4H)-one] | – | – | suppression of Von Bezold-Jarisch Reflex response [2, 5]: suppressed the response dose-dependently; suppression of Von Bezold-Jarisch Reflex response ([2]; 0.25-1 mg/kg given orally): suppressed the response dose-dependently
3 | CCN(CC)CCNC(=O)c1cc(Cl)c(N)cc1OC [metoclopramide] | 7.2 | highly effective | relief of an acute migraine attack ([4]; slow intravenous injection, 10 mg (Hughes 1977)): immediate relief of an acute migraine attack
4 | CN1[C@@H]2CC[C@H]1C[C@@H](OC(=O)c1ccccc1)C2 [benzoyltropine] | 7.2 | – | –
5 | O=C(OC1CC2CC3CC(C1)N2CC3=O)c1c[nH]c2ccccc12 (stereo not drawn) [endo-hexahydro-8-(3-indolylcarbonyloxy)-2,6-methano-2H-quinolizin-3(4H)-one hydrochloride] | – | – | suppression of Von Bezold-Jarisch Reflex response [2, 5]: suppressed the response dose-dependently; suppression of Von Bezold-Jarisch Reflex response ([2]; 0.25-1 mg/kg given orally): suppressed the response dose-dependently
6 | CN1[C@@H]2CC[C@H]1C[C@@H](OC(=O)c1cc(Cl)cc(Cl)c1)C2 [3,5-dichlorobenzoyltropine] | – | highly effective | efficacy in the acute migraine attack ([4]; double-blind clinical trial (Loisy et al.)): proved an effective treatment
7 | CN1[C@@H]2CC[C@H]1C[C@H](OC(=O)c1ccccc1)C2 [pseudotropyl benzoate] | 7.0 | – | –
8 | CN1[C@@H]2CC[C@H]1C[C@@H](OC(=O)c1c[nH]c3ccccc13)C2 [(3α-tropanyl)-1H-indole-3-carboxylic acid ester] | – | highly effective | –
